According to PubChem BioAssay AID588719 (Southern Research Specialized Biocontainment Screening …, 2011):

Tested on: Vero 76 cells viability, cytotoxicity counter-screen
Assay: Vero 76 cell cytotoxicity, dose response, cytotoxicity control for VEEV inhibitor project (AID 588719)

COc1cc(/C=C/C(=O)/C=C(O)/C=C/c2ccc(O)c(OC)c2)ccc1O
CC50: 19.9 µM
